Measurements from patent publication US20220289756A1, “COMPOUNDS AND COMPOSITIONS AS INHIBITORS OF PROTEIN KINASES” (priority 2021, published 2022).
pIC50: −log10 of the molar value.

Assays:
ABL (WT) = target: T1, ABL (WT) (Homo sapiens, UniProt P00519); experiment: Abl kinase activity assay, Kinase-Glo Plus luminescence (BPS Biosciences); type: biochemical; conditions: 10 μM ATP
T1 construct: purchased BPS Biosciences (named as the lab that ran the assay)
Protocol: (§1) Assay was conducted by BPS Biosciences, 6405 Mira Mesa Blvd. Suite 100. San Diego, Calif. 92121. United States
(§2) • The assay was performed using Kinase-Glo Plus luminescence kinase assay kit (Promega). It measures kinase activity by quantitating the amount of ATP remaining in solution following a kinase reaction. The luminescent signal from the assay is correlated with the amount of ATP present and is inversely correlated with the amount of kinase activity. • The testing compounds were diluted in 10% DMSO and 5 μl of the dilution was added to a 50 μl reaction so that the final concentration of DMSO is 1% in all of reactions. All of the enzymatic reactions were conducted at 30° C. for 45 minutes. The 50 μl reaction mixture contains 40 mM Tris, pH 7.4, 10 mM MgCl2, 0.1 mg/ml BSA, 1 mM DTT, 10 μM ATP, Kinase substrate and the enzyme. After the enzymatic reaction, 50 μl of Kinase-Glo Plus Luminescence kinase assay solution (Promega) was added to each reaction and incubated on the plate for 15 minutes, at room temperature. Luminescence signal was measured using a BioTek Synergy 2 microplate reader.
(§3) • Kinase activity assays were performed in duplicate at each concentration. The luminescence data were analyzed using the computer software, Graphpad Prism. The difference between luminescence intensities in the absence of Kinase (Lut) and in the presence of Kinase (Luc) was defined as 100% activity (Lut−Luc). Using luminescence signal (Lu) in the presence of the compound, % activity was calculated as: • % activity={(Lut−Lu)/(Lut−Luc)}×100%, where Lu=the luminescence intensity in the presence of the compound. The values of % activity versus a series of compound concentrations were then plotted using non-linear regression analysis of Sigmoidal dose-response curve generated with the equation Y=B+(T−B)/1+10 ((LogEC50−X)×Hill Slope), where Y=percent activity, B=minimum percent activity, T=maximum percent activity, X=logarithm of compound and Hill Slope=slope factor or Hill coefficient. The IC 50 value was determined by the concentration causing a half-maximal percent activity.

Abl(T315I) = target: T2, Abl(T315I) (Homo sapiens, UniProt P00519, T315I); experiment: Abl(T315I) kinase activity assay, Kinase-Glo Plus luminescence (BPS Biosciences); type: biochemical; conditions: 10 μM ATP
T2 construct: purchased BPS Biosciences (named as the lab that ran the assay)
Protocol: as §1, §2, §3

[1] = 10 nM compound, read-out: % Inhibition of Compound 55 @10 nM
[2] = 100 nM compound, read-out: % Inhibition of Compound 55 @100 nM

Cc1ccc(C(=O)Nc2ccc(CN3CCN(C)CC3)c(C(F)(F)F)c2)cc1C12CC(c3cnc4cccnn34)(C1)C2 [Compound 55, 3-(3-(imidazo[1,2-b]pyridazin-3-yl)bicyclo[1.1.1]pentan-1-yl)-4-methyl-N-(4-((4-methylpiperazin-1-yl)methyl)-3-(trifluoromethyl)phenyl)benzamide]
inhibition at 0.01 µM (ABL (WT); [1]): > 10%
inhibition at 0.1 µM (ABL (WT); [2]): > 25%
pIC50 (ABL (WT); read-out: IC-50 of Compound 55): > 6.30
inhibition at 0.01 µM (Abl(T315I); [1]): > 10%
inhibition at 0.1 µM (Abl(T315I); [2]): > 25%
pIC50 (Abl(T315I); read-out: IC-50 of Compound 55): > 6.30
